Experimental data published in patent US5716971A, “Pyridine derivatives, their production and use” (Takeda Chemical Industries, Ltd., priority 1993, dated 1998).
Like-named read-outs stand apart in the source and are kept apart here.

Assays:
specimen of rat aorta [1] = test: Vasorelaxation activity in a specimen of rat aorta: contraction caused by KCl; settings: read-out: constriction inhibitory ratio
Experimental: (§1) Male Wister rats (10 to 13 week old were employed for the experiment. After dehematization, the aorta was excised and a ring specimen (5 mm length) was prepared. The specimen was suspended in a bath filled with oxygenated (95% O2 -5%CO2) Krebs solution (36° C.). The ring specimen was fixed at one end and the other end was connected to a transducer (Nippon Koden) for recording tension to determine the tension. After a stabilization period of one hour, TEA (30-45 mM) and BaCl2 (0.3 mM) were added to the bath to cause vasoconstriction. After the constriction had reached a steady state (after about 15 minutes), a test compound was added to the bath and its relaxation activity was measured.
Vasorelaxation activity in a specimen of rat aorta Effects on contraction caused by potassium chloride (KCl)
The same experiment was conducted as in Experiment 1, excepting the use of KCl ([…]) instead of TEA and BaCl2

[2] = tested on: Spontaneously hypertensive rats; test: Hypotensive activity in rats (Tail Cuff Method), oral; assay type: in vivo; settings: Rattus norvegicus, SHR
Experimental: Hypotensive activity in rats (Tail Cuff Method)
Spontaneously hypertensive rats (SHR, male, 20 to 23 week old) were warmed up to 36° C. The blood pressure at the tail aorta was measured by the tail cuff method. The blood pressure was measured three times, i.e. before oral administration of the test compound, two hours after the administration and five hours after the administration. The test compound was orally administered in the state of a suspension in gum arabic.
Maximal, hypotensive effect against the blood pressure before the administration is shown as % pre. in Table 66. As a result, it is apparent that the compounds of this invention show hypotensive activity.

anesthetized dogs = test: Action of increasing coronary blood flow in anesthetized dogs (administration into coronary artery); assay type: in vivo, dog; settings: injected into coronary artery, 30 ug/day, anesthetized Beagle dogs
Experimental: Action of increasing coronary blood flow in anesthetized dogs (Administration into coronary artery) Method: Beagle dogs (10 to 12 kg body weight) were anesthetized with pentobarbital and subjected to thoractomy under artificial respiration. A by-pass fitted with an electromagnetic flowmeter (Nippon Koden) was prepared between the left coronary artery and left carotid artery,and the volume of coronary blood flow was measured. […]
Maximal change rate against the value measured before the administration (% of basal flow) and the duration period [shown in terms of the time (T1/2) in which the activity is reduced to half] are shown in Table 67. As a result, it is apparent that the compounds of this invention show action of increasing coronary blood flow.

specimen of rat aorta [3] = test: Vasorelaxation activity in a specimen of rat aorta: contraction caused by TEA and BaCl2; settings: TEA (30-45 mM) and BaCl2 (0.3 mM) contraction, read-out: constriction inhibitory ratio
Experimental: Vasorelaxation activity in a specimen of rat aorta Effects on contraction caused by tetraethylammonium chloride (TEA) and barium chloride (BaCl2)
as §1

[4] = after 2 hours, read-out: Maximal hypotensive effect against blood pressure before administration (% pre.), after 2 hours
[5] = after 5 hours, read-out: Maximal hypotensive effect against blood pressure before administration (% pre.), after 5 hours

| SMILES | inhibition at 1 µM (specimen of rat aorta [1]) | inhibition at 3 µM (specimen of rat aorta [1]) | inhibition in vivo at 1 mg/kg [2, 4] | inhibition in vivo at 1 mg/kg [2, 5] | inhibition in vivo at 10 mg/kg [2, 4] | inhibition in vivo at 10 mg/kg [2, 5] | duration (T1/2): time in which the activity is reduced to half (anesthetized dogs) | inhibition at 1 µM (specimen of rat aorta [3]) | inhibition at 3 µM (specimen of rat aorta [3]) | inhibition at 10 µM (specimen of rat aorta [1]) | inhibition at 10 µM (specimen of rat aorta [3]) | inhibition in vivo at 3 mg/kg [2, 4] | inhibition in vivo at 3 mg/kg [2, 5] | inhibition in vivo at 30 mg/kg [2, 4] | inhibition in vivo at 30 mg/kg [2, 5] |
| --- | --- | --- | --- | --- | --- | --- | --- | --- | --- | --- | --- | --- | --- | --- | --- |
| CC(C)(C)O/N=C(/c1cc(Cl)c(F)cc1O)c1c(O)ccc[n+]1[O-] [Compound 58, (Z)-2-(5-chloro-4-fluoro-2-hydroxybenzoyl)-3-hydroxypyridine N-oxide O-t-butyloxime] | 0% | 0% | 35% | 19% | 55% | 45% | 47.7 min | 84% | 94% |  |  |  |  |  |  |
| CC(C)(C)O/N=C(/c1cc(Br)ccc1O)c1c(O)ccc[n+]1[O-] [Compound 63, (Z)-2-(5-bromo-2-hydroxybenzoyl)-3-hydroxypyridine N-oxide O-t-butyloxime] | 0% | 0% |  |  | 42% | 54% | 2.4 min | 13% | 61% | 0% | 100% |  |  |  |  |
| Cc1cc(O)c(/C(=N/OC(C)(C)C)c2c(O)ccc[n+]2[O-])cc1Br [Compound 67, (Z)-2-(5-bromo-2-hydroxy-4-methylbenzoyl)-3-hydroxypyridine N-oxide O-t-butyloxime] | 0% | 0% |  |  | 28% | 35% | 8.9 min | 32% | 89% | 0% | 100% |  |  |  |  |
| CC(C)(C)O/N=C(/c1cc(Br)c(Cl)cc1O)c1cccc[n+]1[O-] [Compound 101, (Z)-2-(5-bromo-4-chloro-2-hydroxybenzoyl)pyridine N-oxide O-t-butyloxime] | 3% | 25% |  |  |  |  | 7.9 min | 71% | 65% |  |  | 10% | 11% |  |  |
| CC(C)(C)C/N=C(/c1cc(Br)ccc1O)c1cccc[n+]1[O-] [Compound 105, (Z)-2-[(5-bromo-2-hydroxy)-α-neopentyliminobenzyl]pyridine N-oxide] | 4% | 28% |  |  |  |  | 2.9 min | 46% | 87% |  |  |  |  | 59% | 44% |
